Source: ChEMBL document CHEMBL1138304, “New novobiocin analogues as antiproliferative agents in breast cancer cells and potential inhibitors of heat shock protein 90” (J Med Chem, 2007)
Activity calls are given as the source filed them. No cut-off for these calls is given here.

Key:
MELN [1] = assay: Inhibition of basal ER-mediated transcription activity in MELN cells by measuring luciferase activity at 2 uM after 18 hrs; format: functional, cell-based; conditions: Homo sapiens
MELN [2] = assay: Inhibition of estradiol-induced ER-mediated transcription in MELN cells by measuring luciferase activity at 2 uM after 18 hrs; format: functional, cell-based; conditions: Homo sapiens
MCF7 [3] = assay: Cell cycle arrest in MCF7 cells assessed as accumulation at G2/M phase at 200 uM after 48 hrs by flow cytometry; format: functional, Homo sapiens
MCF7 [4] = assay: Cell cycle arrest in MCF7 cells assessed as accumulation at subG1 phase at 200 uM after 72 hrs by flow cytometry; format: functional, Homo sapiens
MCF7 [5] = assay: Cell cycle arrest in MCF7 cells assessed as accumulation at G2/M phase at 200 uM after 72 hrs by flow cytometry; format: functional, Homo sapiens
MCF7 [6] = assay: Cell cycle arrest in MCF7 cells assessed as accumulation at S phase at 200 uM after 48 hrs by flow cytometry; format: functional, Homo sapiens
MCF7 [7] = assay: Cell cycle arrest in MCF7 cells assessed as accumulation at G0/G1 phase at 200 uM after 72 hrs by flow cytometry; format: functional, Homo sapiens
MCF7 [8] = assay: Cell cycle arrest in MCF7 cells assessed as accumulation at G0/G1 phase at 200 uM after 48 hrs by flow cytometry; format: functional, Homo sapiens
MCF7 [9] = assay: Decrease in cdk4 protein level in MCF7 cells at 200 uM after 18 hrs; format: functional, cell-based; conditions: Homo sapiens
MCF7 [10] = assay: Cell cycle arrest in MCF7 cells assessed as accumulation at S phase at 200 uM after 72 hrs by flow cytometry; format: functional, Homo sapiens
MCF7 [11] = assay: Cytotoxicity against MCF7 cells assessed as cell viability at 200 uM after 72 hrs by MTT assay; format: functional; conditions: Homo sapiens, MCF7, 72 h; read-out: Activity
MCF7 [12] = assay: Cell cycle arrest in MCF7 cells assessed as accumulation at subG1 phase at 200 uM after 48 hrs by flow cytometry; format: functional, Homo sapiens
MCF7 [13] = assay: Decrease in HER2 expression in MCF7 cells at 200 uM after 18 hrs; format: functional, cell-based; conditions: Homo sapiens
MCF7 [14] = assay: Decrease in Raf1 expression in MCF7 cells at 200 uM after 18 hrs; format: functional, cell-based; conditions: Homo sapiens
MCF7 [15] = assay: Growth inhibition of MCF7 cells after 72 hrs by MTT assay; format: functional, cell-based; conditions: Homo sapiens, MCF7, 72 h
MELN [16] = assay: Inhibition of estradiol-induced ER-mediated transcription in MELN cells by measuring luciferase activity at 200 uM after 18 hrs; format: functional, cell-based; conditions: Homo sapiens

**Q.** What does the source list for CC1(C)[C@@H](O)CC[C@]2(C)[C@H]3C(=O)C=C4[C@@H]5C[C@@](C)(C(=O)O)CC[C@]5(C)CC[C@@]4(C)[C@]3(C)CC[C@@H]12?
**A.** Activity (MELN [1]): Active; Activity (MELN [2]): Active

**Q.** Which Activity (MCF7 [3]) does the source give for Cc1c(O)ccc2c(O)c(NC(=O)c3ccc4c(c3)CCC(C)(C)O4)c(=O)oc12 [CYCLONOVOBIOCIC ACID] here?
**A.** Its Activity is 14.4%.

**Q.** What about the Activity (MCF7 [4]) of the same compound?
**A.** The Activity was 6%.

**Q.** And the Activity (MCF7 [5])?
**A.** The Activity was 18.6%.

**Q.** And the Activity (MCF7 [6])?
**A.** The Activity was 36.2%.

**Q.** What about the Activity (MCF7 [7]) of the same compound?
**A.** Its Activity is 58.1%.

**Q.** What about the Activity (MCF7 [8]) of the same compound?
**A.** Its Activity is 46.5%.

**Q.** And the Activity (MCF7 [9])?
**A.** The Activity was “Active”.

**Q.** What about the Activity (MCF7 [10]) of the same compound?
**A.** Its Activity is 23.4%.

**Q.** What about the viability at 200 µM (MCF7 [11]) of the same compound?
**A.** Its viability at 200 µM is 75%.

**Q.** And the Activity (MCF7 [12])?
**A.** Its Activity is 7.7%.

**Q.** What does the source list for COc1ccc(C(=O)Nc2c(OC)c3ccc(OC)c(C)c3oc2=O)cc1CC=C(C)C?
**A.** Activity (MCF7 [3]): 10.8%; Activity (MCF7 [4]): 3.8%; Activity (MCF7 [13]): Active; Activity (MCF7 [5]): 6.9%; Activity (MCF7 [6]): 14.4%; Activity (MCF7 [7]): 82.1%; Activity (MCF7 [8]): 73.3%; Activity (MCF7 [10]): 10.2%; Activity (MCF7 [12]): 3.6%

**Q.** Which results are given for COc1ccc2c(O)c(NC(=O)c3ccc4c(c3)CCC(C)(C)O4)c(=O)oc2c1C?
**A.** Activity (MCF7 [3]): 10.7%; Activity (MCF7 [4]): 2.5%; Activity (MCF7 [5]): 6.5%; Activity (MCF7 [6]): 16.2%; Activity (MCF7 [7]): 85.4%; Activity (MCF7 [8]): 71.9%; Activity (MCF7 [10]): 8.5%; viability at 200 µM (MCF7 [11]): 75%; Activity (MCF7 [12]): 3.3%

**Q.** What does the source list for COc1ccc(-c2c(NC(=O)c3ccc4c(c3)CCC(C)(C)O4)c(=O)oc3c(C)c(OC)ccc23)cc1?
**A.** Activity (MCF7 [3]): 11.5%; Activity (MCF7 [4]): 4%; Activity (MCF7 [5]): 7.7%; Activity (MCF7 [6]): 15.3%; Activity (MCF7 [7]): 81.3%; Activity (MCF7 [8]): 71%; Activity (MCF7 [10]): 9.5%; Activity (MCF7 [12]): 3.7%

**Q.** Which results are given for Cc1ccc(S(=O)(=O)Oc2ccc3c(-c4ccc(Cl)cc4)c(NC(=O)c4ccc5c(c4)CCC(C)(C)O5)c(=O)oc3c2C)cc1?
**A.** Activity (MCF7 [3]): 9.9%; Activity (MCF7 [4]): 4.9%; Activity (MCF7 [5]): 7.5%; Activity (MCF7 [6]): 19.7%; Activity (MCF7 [7]): 74.1%; Activity (MCF7 [8]): 70.4%; Activity (MCF7 [10]): 17.1%; Activity (MCF7 [12]): 3.8%; Activity (MCF7 [14]): Active

**Q.** What does the source list for CO[C@@H]1[C@@H](OC(N)=O)[C@@H](O)[C@H](Oc2ccc3c(O)c(NC(=O)c4ccc(O)c(CC=C(C)C)c4)c(=O)oc3c2C)OC1(C)C [NOVOBIOCIN]?
**A.** Activity (MCF7 [3]): 19.3%; Activity (MCF7 [4]): 9.8%; Activity (MCF7 [5]): 19.3%; Activity (MCF7 [6]): 19.7%; IC50 (MCF7 [15]): 260 µM; Activity (MCF7 [7]): 58.3%; Activity (MCF7 [8]): 59.9%; Activity (MCF7 [10]): 21.3%; Activity (MCF7 [12]): 5.9%; Activity (MELN [16]): Active

**Q.** How did the Activity (MCF7 [3]) turn out when COc1ccc2c(OC)c(NC(=O)c3ccc4c(c3)CCC(C)(C)O4)c(=O)oc2c1C was run?
**A.** Its Activity is 11.9%.

**Q.** And the Activity (MCF7 [4])?
**A.** The Activity was 3.8%.

**Q.** What about the Activity (MCF7 [5]) of the same compound?
**A.** Its Activity is 7.2%.

**Q.** And the Activity (MCF7 [6])?
**A.** The Activity was 28.4%.

**Q.** What about the Activity (MCF7 [7]) of the same compound?
**A.** Its Activity is 77.8%.

**Q.** What about the Activity (MCF7 [8]) of the same compound?
**A.** The Activity was 56.7%.

**Q.** And the Activity (MCF7 [10])?
**A.** The Activity was 14.8%.

**Q.** What about the viability at 200 µM (MCF7 [11]) of the same compound?
**A.** The viability at 200 µM was 75%.

**Q.** And the Activity (MCF7 [12])?
**A.** The Activity was 7.5%.
